What was measured:
backs of BALB/c mice = assay: in vivo release test, FD&C dye impregnated dissolvable film on abraded skin; conditions: one hour after application; visually noted, estimated
Protocol: In one test, the backs of BALB/c mice were treated in multiple sites with an abrasive device (FAST™ device, see, for example, United States Publication No. 20040236269, incorporated herein by reference) where a 60 μm abrasive, was applied to the skin with 10-20 grams of force, oscillating at 840 Hz for 2 seconds over a 5×8 mm spot. FD&C dye impregnated dissolvable films were placed over each treatment site with a semi-occlusive covering (patch). The patch was left on for a period of 1-24 hours.

BALB/c or A/J mice = conditions: mouse, in vivo

Question: With FD&C No. 1 dye as the molecule, how does the “presence of dye on the mouse skin” value (backs of BALB/c mice) read?
Answer: The value was greater than 75%.

Question: Which “effect of adjuvant/preservative on antibody titer” value (BALB/c or A/J mice) does the source give for `C=O` [formalin] here?
Answer: Its value is “higher titer antibody response”.

Question: And the “effect of adjuvant/preservative on efficiency of TCI” value (BALB/c or A/J mice)?
Answer: Its value is “did not show a statistically significant difference”.

Question: alum was tested. Which “effect of adjuvant/preservative on antibody titer” value (BALB/c or A/J mice) did it give?
Answer: The value was “higher titer antibody response”.

Reference: patent US20090010998A1 (priority 2007, published 2009)
